According to US10131664B2 (Celgene Quanticel Research, Inc., priority 2013, dated 2018):
Read-outs that look alike come from different tables or passages of the source.

What was measured:
full-length human LSD1 = full-length human LSD1 (Homo sapiens (Human), UniProt O60341); experiment: In vitro enzyme inhibition assay LSD-1 (TR-FRET); type: biochemical
Procedure: This assay determines the ability of a test compound to inhibit LSD1 demethylase activity.
The enzymatic assay of LSD1 activity is based on Time Resolved-Fluorescence Resonance Energy Transfer (TR-FRET) detection.
The ability of the compounds disclosed herein to inhibit LSD1 activity was quantified and the respective IC50 value was determined. Table 5 provides the IC50 values of various substituted heterocyclic compounds disclosed herein.

THP-1 (AML) cells = experiment: LSD1 CD11b cellular assay (flow cytometry); type: cell-based; settings: Homo sapiens, 96 h; CD11b expression in THP-1 (AML) cells, flow cytometry, 4 days incubation; read-out: Cellular IC50
Procedure: To analyze LSD1 inhibitor efficacy in cells, a CD11b flow cytometry assay was performed. LSD1 inhibition induces CD11b expression in THP-1 (AML) cells which can be measured by flow cytometry. […] LSD1 test compounds were serially diluted in DMSO. The dilutions were added to each well accordingly to a final concentration of 0.2% DMSO. The cells were incubated at 37° C. in 5% CO2 for 4 days. 250 μL of each well was transferred to a well in a 96 well round bottom plate. The plate was centrifuged at 1200 rpm at 4 degrees Celsius in a Beckman Coulter Alegra 6KR centrifuge for 5 min. The media was removed leaving the cells at the bottom of the wells. The cells were washed in 100 μL cold HBSS (Hank's Balanced Salt Solution) plus 2% BSA (Bovine Serum Albumin) solution and centrifuged at 1200 rpm at 4° C. for 5 min. The wash was removed. […] The cells were centrifuged and washed two times in 100 μl HBSS plus 2% BSA. After the final spin the cells were resuspended in 100 μL HBSS plus 2% BSA containing 1 μg/mL DAPI (4′,6-diamidino-2-phenylindole). The cells were then analyzed by flow cytometry in a BD FACSAria machine. Cells were analyzed for CD11b expression. The percent of CD11b expressing cells for each inhibitor concentration was used to determine an IC50 curve for each compound analyzed.

[1] = TR-FRET, 0.1 nM LSD1, 50 nM H3K4me1-biotin peptide, 2 μM FAD, pH7.3, read-out: LSD1 IC50

| SMILES | IC50 (full-length human LSD1; [1]) | IC50 (THP-1 (AML) cells) | IC50 (full-length human LSD1) |
| --- | --- | --- | --- |
| N#Cc1ccc(-c2cc3c(ccn3C[C@H]3CCNC3)nc2N2CCOCC2)cc1 [Example 7, 4-[5-morpholin-4-yl-1-[[(3S)-pyrrolidin-3-yl]methyl]pyrrolo[3,2-b]pyridin-6-yl]benzonitrile] | < 100 nM | 100 to 1000 nM | – |
| Cc1ccc(-c2nc3cnn(CC4CCNCC4)c3cc2-c2ccc(C#N)cc2)cc1 [Example 14] | < 100 nM | < 100 nM | – |
| COc1ccc(-c2cnc(N3CCC(N)CC3)nc2-c2ccc(C#N)cc2)cc1 [Example 83, 4-[2-(4-aminopiperidin-1-yl)-5-(4-methoxyphenyl)pyrimidin-4-yl]benzonitrile] | < 100 nM | < 100 nM | – |
| CNc1nc(N2CCC(N)CC2)nc(-c2ccc(C#N)cc2)c1-c1cnc2c(c1)nnn2C [Example 176, 4-[2-(4-aminopiperidin-1-yl)-5-{3-methyl-3H-[1,2,3]triazolo[4,5-b]pyridin-6-yl}-6-(methylamino)pyrimidin-4-yl]benzonitrile] | < 100 nM | < 100 nM | – |
| N#Cc1ccc(-n2nc(C(=O)N3CCC[C@@H](N)C3)cc2OCc2cccnc2)cc1 [Example 57, 4-{3-[((3R)-3-Aminopiperidyl)carbonyl]-5-(3-pyridylmethoxy)pyrazolyl}benzenecarbonitrile] | < 100 nM | 100 to 1000 nM | – |
| N#Cc1ccc(-c2nc(N3CCC(N)CC3)ncc2-c2cnn(C3CCOCC3)c2)cc1F [Example 142, 4-[2-(4-aminopiperidin-1-yl)-5-[1-(oxan-4-yl)pyrazol-4-yl]pyrimidin-4-yl]-2-fluorobenzonitrile] | < 100 nM | < 100 nM | – |
| COc1nc(N2CCC(N)CC2)nc(-c2ccc(C#N)c(F)c2)c1-c1ccc2cn(C)nc2c1 [Example 150, 4-[2-(4-aminopiperidin-1-yl)-6-methoxy-5-(2-methyl-2H-indazol-6-yl)pyrimidin-4-yl]-2-fluorobenzonitrile] | < 100 nM | < 100 nM | – |
| CNc1nc(N2CCC(N)CC2)nc(-c2ccc(C#N)cc2)c1-c1ccc2nn(C)cc2c1 [Example 163, 4-[2-(4-aminopiperidin-1-yl)-5-(2-methyl-2H-indazol-5-yl)-6-(methylamino)-pyrimidin-4-yl]-benzonitrile] | < 100 nM | < 100 nM | – |
| Cn1cc2cc(-c3cnc(N4CCC(N)CC4)nc3-c3ccc(C#N)cc3)cnc2n1 [Example 85, 4-[2-(4-aminopiperidin-1-yl)-5-(2-methylpyrazolo[3,4-b]pyridin-5-yl)pyrimidin-4-yl]benzonitrile] | < 100 nM | 100 to 1000 nM | – |
| Cn1cnc2cc(-c3cnc(N4CCC(N)CC4)nc3-c3ccc(C#N)cc3)c(F)cc21 [Example 125, 4-[2-(4-aminopiperidin-1-yl)-5-(6-fluoro-1-methylbenzimidazol-5-yl)pyrimidin-4-yl]benzonitrile] | < 100 nM | < 100 nM | – |
| N#Cc1ccc(-c2cc3c(ccn3C[C@H]3CCNC3)nc2Cl)cc1 [Example 4, 4-[5-chloro-1-[[(3S)-pyrrolidin-3-yl]methyl]pyrrolo[3,2-b]pyridin-6-yl]benzonitrile] | 100 to 1000 nM | 1000 to 10000 nM | – |
| COc1nc(N2CCC(N)CC2)nc(-c2ccc(C#N)c(F)c2)c1-c1ccc2c(c1)nnn2C [Example 151, 4-[2-(4-aminopiperidin-1-yl)-6-methoxy-5-(1-methyl-1H-1,2,3-benzotriazol-5-yl)pyrimidin-4-yl]-2-fluorobenzonitrile] | < 100 nM | < 100 nM | – |
| Cn1cc2cc(-c3cnc(N4CCC(N)CC4)nc3-c3ccc(C#N)cc3)ncc2n1 [Example 73, 4-[2-(4-aminopiperidin-1-yl)-5-(2-methylpyrazolo[3,4-c]pyridin-5-yl)pyrimidin-4-yl]benzonitrile] | < 100 nM | 100 to 1000 nM | – |
| Cn1ccc(C#Cc2cnc(N3CCC(N)CC3)nc2-c2ccc(C#N)c(F)c2)n1 [Example 99, 4-[2-(4-aminopiperidin-1-yl)-5-[2-(1-methylpyrazol-3-yl)ethynyl]pyrimidin-4-yl]-2-fluorobenzonitrile] | < 100 nM | < 100 nM | – |
| COc1ccc(-c2cnc(N3CCC(N)CC3)nc2-c2ccc(C#N)cc2)cn1 [Example 123, 4-[2-(4-aminopiperidin-1-yl)-5-(6-methoxypyridin-3-yl)pyrimidin-4-yl]benzonitrile] | < 100 nM | < 100 nM | – |
| CNc1nc(N2CCC(N)CC2)nc(-c2ccc(C#N)c(F)c2)c1-c1ccc2c(c1)nnn2C [Example 165, 4-[2-(4-aminopiperidin-1-yl)-5-(1-methyl-1H-1,2,3-benzotriazol-5-yl)-6-(methylamino)pyrimidin-4-yl]-2-fluorobenzonitrile] | < 100 nM | < 100 nM | – |
| Cc1ccc(-c2nc3cnn(CC4CCNC4)c3cc2-c2ccc(C#N)cc2)cc1 (stereo not drawn) [Example 13] | < 100 nM | < 100 nM | – |
| Cc1ccc(-c2nc3ccn(CC4(F)CCNC4)c3cc2-c2ccc(C#N)cc2)cc1 (stereo not drawn) [Example 9, 4-[1-[(3-fluoropyrrolidin-3-yl)methyl]-5-(4-methylphenyl)pyrrolo[3,2-b]pyridin-6-yl]benzonitrile] | – | 100 to 1000 nM | < 100 nM |
| COc1nc(N2CCC(N)CC2)nc(-c2ccc(C#N)cc2)c1-c1cnn(CC(F)(F)F)c1 [Example 153, 4-[2-(4-aminopiperidin-1-yl)-6-methoxy-5-[1-(2,2,2-trifluoroethyl)-1H-pyrazol-4-yl]pyrimidin-4-yl]benzonitrile] | < 100 nM | < 100 nM | – |
| COc1nc(N2CCC(N)CC2)nc(-c2ccc(C#N)cc2)c1-c1cnc(N(C)C)nc1 [Example 156, 4-[2-(4-aminopiperidin-1-yl)-5-[2-(dimethylamino)pyrimidin-5-yl]-6-methoxypyrimidin-4-yl]benzonitrile] | < 100 nM | < 100 nM | – |
| CCNc1nc(N2CCC(N)CC2)nc(-c2ccc(C#N)c(F)c2)c1-c1ccc2nn(C)cc2c1 [Example 166, 4-[2-(4-aminopiperidin-1-yl)-6-(ethylamino)-5-(2-methyl-2H-indazol-5-yl)-pyrimidin-4-yl]-2-fluorobenzonitrile] | < 100 nM | < 100 nM | – |
| Cn1cc(C#Cc2cnc(N3CCC(N)CC3)nc2-c2ccc(C#N)c(F)c2)cn1 [Example 102, 4-[2-(4-aminopiperidin-1-yl)-5-[2-(1-methylpyrazol-4-yl)ethynyl]pyrimidin-4-yl]-2-fluorobenzonitrile] | < 100 nM | < 100 nM | – |
| Cn1cc2cc(-c3cnc(N4CCC(N)C4)nc3-c3ccc(C#N)c(F)c3)ccc2n1 (stereo not drawn) [Example 143, 4-[2-(3-aminopyrrolidin-1-yl)-5-(2-methylindazol-5-yl)pyrimidin-4-yl]-2-fluorobenzonitrile] | < 100 nM | < 100 nM | – |
| N#Cc1ccc(-c2nc(NC[C@H]3CCNC3)ncc2-c2ccc(Cl)cc2)cc1 [Example 19, 4-[5-(4-chlorophenyl)-2-{[(3S)-pyrrolidin-3-ylmethyl]amino}pyrimidin-4-yl]benzonitrile] | < 100 nM | 100 to 1000 nM | – |
| Cn1nnc2cc(-c3cnc(N4CCC(N)CC4)nc3-c3ccc(C#N)c(F)c3)cnc21 [Example 139, 4-[2-(4-aminopiperidin-1-yl)-5-(3-methyltriazolo[4,5-b]pyridin-6-yl)pyrimidin-4-yl]-2-fluorobenzonitrile] | < 100 nM | < 100 nM | – |
| Cn1cnc2cc(-c3cnc(N4CCC(N)CC4)nc3-c3ccc(C#N)c(F)c3)c(F)cc21 [Example 133, 4-[2-(4-aminopiperidin-1-yl)-5-(6-fluoro-1-methylbenzimidazol-5-yl)pyrimidin-4-yl]-2-fluorobenzonitrile] | < 100 nM | < 100 nM | – |
| Cn1cnc2cc(-c3cnc(N4CCC(N)CC4)nc3-c3ccc(C#N)c(F)c3)ccc21 [Example 87, 4-[2-(4-aminopiperidin-1-yl)-5-(1-methylbenzimidazol-5-yl)pyrimidin-4-yl]-2-fluorobenzonitrile] | < 100 nM | < 100 nM | – |
| Cc1ccc(-c2cnc(N3CCC4CNCC4CC3)nc2-c2ccc(C#N)cc2)cn1 (stereo not drawn) [Example 114, 4-[2-(2,3,3a,4,5,7,8,8a-octahydro-1H-pyrrolo[3,4-d]azepin-6-yl)-5-(6-methylpyridin-3-yl)pyrimidin-4-yl]benzonitrile] | < 100 nM | 100 to 1000 nM | – |
| COc1nc(N2CCC(N)CC2)nc(-c2ccc(C#N)c(F)c2)c1-c1cnc2c(cnn2C)c1 [Example 159, 4-[2-(4-aminopiperidin-1-yl)-6-methoxy-5-{1-methyl-1H-pyrazolo[3,4-b]pyridin-5-yl}pyrimidin-4-yl]-2-fluorobenzonitrile] | < 100 nM | < 100 nM | – |
| Cc1ccc(-c2cnc(N3CCC4(CC3)CNC4)nc2-c2ccc(C#N)cc2)cc1 [Example 113, 4-[2-(2,7-diazaspiro[3.5]nonan-7-yl)-5-(4-methylphenyl)pyrimidin-4-yl]benzonitrile] | < 100 nM | 100 to 1000 nM | – |
